Holding throughout (assay): HPLC, […] nm; lactonase buffer kinetic assay (method of Thomas et al.)
Common to all, as to type: biochemical
Common to all, as to conditions: 30 °C; lactone hydrolysis

In assay [1] the target is T1, Est816 (uncultured bacterium, UniProt Z9COY3ZA92, P27G/F28N, form not given).
T1 construct: full length, C-terminal 6xHis tag (pET-21b), E. coli BL21(DE3); catalytic triad S93, D214, H242
T1 sequence (Z9COY3ZA92 1-260 P27G/F28N): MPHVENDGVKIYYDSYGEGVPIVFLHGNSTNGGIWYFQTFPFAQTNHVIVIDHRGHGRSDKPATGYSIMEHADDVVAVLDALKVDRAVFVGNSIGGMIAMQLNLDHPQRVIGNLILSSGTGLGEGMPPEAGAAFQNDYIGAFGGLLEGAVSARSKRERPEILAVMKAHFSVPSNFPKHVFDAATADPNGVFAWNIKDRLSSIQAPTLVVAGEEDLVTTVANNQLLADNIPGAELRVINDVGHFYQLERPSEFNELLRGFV

The target of assay [2] is T2, Est816 (uncultured bacterium, UniProt Z9COY3ZA92, V216A, form not given).
T2 construct: full length, C-terminal 6xHis tag (pET-21b), E. coli BL21(DE3); catalytic triad S93, D214, H242
T2 sequence (Z9COY3ZA92 1-260 V216A): T1 sequence (Z9COY3ZA92 1-260 P27G/F28N) with G27P, N28F, V216A

The target in assay [3] is T3, Est816 (uncultured bacterium, UniProt Z9COY3ZA92, L122A, form not given).
T3 construct: full length, C-terminal 6xHis tag (pET-21b), E. coli BL21(DE3); catalytic triad S93, D214, H242
T3 sequence (Z9COY3ZA92 1-260 L122A): T1 sequence (Z9COY3ZA92 1-260 P27G/F28N) with G27P, N28F, L122A

The target in assay [4] is T4, Est816 (uncultured bacterium, UniProt Z9COY3ZA92, V216A/N238K, form not given).
T4 construct: full length, C-terminal 6xHis tag (pET-21b), E. coli BL21(DE3); catalytic triad S93, D214, H242
T4 sequence (Z9COY3ZA92 1-260 V216A/N238K): T1 sequence (Z9COY3ZA92 1-260 P27G/F28N) with G27P, N28F, V216A, N238K

In assay [5] the target is T5, Est816 (uncultured bacterium, UniProt Z9COY3ZA92, A133V/K155N, form not given).
T5 construct: full length, C-terminal 6xHis tag (pET-21b), E. coli BL21(DE3); catalytic triad S93, D214, H242
T5 sequence (Z9COY3ZA92 1-260 A133V/K155N): T1 sequence (Z9COY3ZA92 1-260 P27G/F28N) with G27P, N28F, A133V, K155N

The target in assay [6] is T6, Est816 (uncultured bacterium, UniProt Z9COY3ZA92, A133F/K155N/V216F, form not given).
T6 construct: full length, C-terminal 6xHis tag (pET-21b), E. coli BL21(DE3); catalytic triad S93, D214, H242
T6 sequence (Z9COY3ZA92 1-260 A133F/K155N/V216F): T1 sequence (Z9COY3ZA92 1-260 P27G/F28N) with G27P, N28F, A133F, K155N, V216F

In assay [7] the target is T7, Est816 (uncultured bacterium, UniProt Z9COY3ZA92, N238K, form not given).
T7 construct: full length, C-terminal 6xHis tag (pET-21b), E. coli BL21(DE3); catalytic triad S93, D214, H242
T7 sequence (Z9COY3ZA92 1-260 N238K): T1 sequence (Z9COY3ZA92 1-260 P27G/F28N) with G27P, N28F, N238K

Residue numbers refer to the chain shown, from its start.

In general, Km refers to the concentration of substrate that gives half-maximal velocity.

Consider `CCCCCCCC(=O)NC1CCOC1=O` (racemic) [C8-HSL, N-octanoyl-DL-homoserine lactone], for which the Km on Est816 [1] came to 3090 ± 198 µM; at Est816 [2], 5800 ± 289 µM; on Est816 [3] it was 105 ± 7.2 µM; at Est816 [4] it was 1140 ± 101 µM; on Est816 [5] it was 3490 ± 146 µM; on Est816 [6], 759 ± 62.2 µM. In addition, on Est816 [7], the Km came to 210 ± 15.5 µM.

For the origin of these results see PMC5133562, “Engineering of a thermostable esterase Est816 to improve its quorum-quenching activity and the underlying structural basis” (Scientific Reports, 2016).
